Patent publication US9895344B2, “Treating various disorders with 7,8-dihydroxyflavone and derivatives thereof” (EMORY UNIVERSITY, priority 2008, dated 2018)

Columns and labels:
[1] = tested on: hippocampal neurons; assay: Oxygen-Glucose Deprivation (OGD) of hippocampal neurons; assay type: cell-based
Description: To explore whether 7,8-dihydroxyflavone exerts any protective effect on hippocampal neurons in Oxygen-Glucose Deprivation (OGD), primary preparations of neurons were treated with BDNF or various flavone derivatives for 30 minutes prior to OGD.

[2] = tested on: Erk; assay: Western analysis of Erk phosphorylation in hippocampal neurons; assay type: cell-based
Description: To further examine whether 7,8-dihydroxyflavone can stimulate TrkB-mediated downstream signaling cascades, Western analysis was performed.
To probe the time course of 7,8-dihydroxyflavone triggered TrkB activation, hippocampal neurons were treated with 7,8-dihydroxyflavone at 500 nM and phosphorylation of Erk and Akt was determined over time by Western analysis. […] Stimulation of Erk and Akt by 7,8-dihydroxyflavone also occurred in a dose dependent manner.

[3] = target: T1, TrkB intracellular domain (ICD) (Rattus norvegicus, UniProt Q63604); assay: In vitro binding assay with [3H]7,8-dihydroxyflavone: TrkB ICD; conditions: gradual increments of [3H]-7,8-dihydroxyflavone
T1 construct: purified TrkB extracellular domain (ECD) and intracellular domain (ICD) recombinant proteins
T1 sequence (Q63604 454-821 limits assumed): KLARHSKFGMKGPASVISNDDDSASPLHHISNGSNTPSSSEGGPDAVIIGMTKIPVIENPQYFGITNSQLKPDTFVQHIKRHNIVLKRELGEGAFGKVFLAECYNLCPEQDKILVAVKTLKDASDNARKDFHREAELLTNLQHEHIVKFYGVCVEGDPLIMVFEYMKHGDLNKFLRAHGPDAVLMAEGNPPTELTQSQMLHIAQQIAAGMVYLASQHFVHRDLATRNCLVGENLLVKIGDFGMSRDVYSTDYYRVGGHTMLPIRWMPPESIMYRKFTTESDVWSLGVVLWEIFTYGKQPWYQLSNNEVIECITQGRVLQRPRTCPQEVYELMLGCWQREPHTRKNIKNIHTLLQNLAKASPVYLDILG
Description: To determine whether 7,8-dihydroxyflavone physically and directly binds the TrkB receptor, in vitro binding assays were conducted with purified TrkB extracellular domain (ECD) and intracellular domain (ICD) recombinant proteins. Purified TrkB ECD and ICD (10 μg of each) were incubated with different concentrations of ^3H-7,8-dihydroxyflavone in 1 ml of binding buffer (0.05M Na/K phosphate buffer, pH 7.1, 200 mM NaCl) at 4° C. for 10 minutes. After the incubation, the reaction mixture was loaded on filter paper. The mixture was washed three times with Tris buffer (100 mM Tris, pH 7.1), and the dried filter paper was put into a small vial and subjected to liquid scintillation counter analysis. […] The value of the dissociate constant and the number of sites were obtained from Scatchard plots using the equation r/[L]free=n/Kd−r/Kd, where r is the ratio of the concentration of bound ligand to the total protein concentration and n is the number of binding sites.

[4] = tested on: Caspase-3 activation; assay: Glutamate-provoked Caspase-3 activation in wild-type and TrkB-/- cortical neurons; assay type: cell-based, mice; conditions: FIG. 21
Description: (§1) To determine whether 7,8-dihydroxyflavone can selectively activate TrkB receptor and prevent neuronal cell death, cortical neurons were prepared from homozygous pups of TrkB+/−mice, which were mated to the same genotype. […] Glutamate nonselectively elicited weak TrkA phosphorylation in both wild-type and TrkB-null neurons (FIG. 21, row 3).

[5] = target: T2, TrkB (Mus musculus, UniProt P15209); assay: Trk activation in wild-type and TrkC knockout cortical neurons: TrkB; assay type: cell-based, mice; conditions: FIG. 22
T2 construct: from tissue; host or cells: mouse brain
T2 sequence (P15209 32-821): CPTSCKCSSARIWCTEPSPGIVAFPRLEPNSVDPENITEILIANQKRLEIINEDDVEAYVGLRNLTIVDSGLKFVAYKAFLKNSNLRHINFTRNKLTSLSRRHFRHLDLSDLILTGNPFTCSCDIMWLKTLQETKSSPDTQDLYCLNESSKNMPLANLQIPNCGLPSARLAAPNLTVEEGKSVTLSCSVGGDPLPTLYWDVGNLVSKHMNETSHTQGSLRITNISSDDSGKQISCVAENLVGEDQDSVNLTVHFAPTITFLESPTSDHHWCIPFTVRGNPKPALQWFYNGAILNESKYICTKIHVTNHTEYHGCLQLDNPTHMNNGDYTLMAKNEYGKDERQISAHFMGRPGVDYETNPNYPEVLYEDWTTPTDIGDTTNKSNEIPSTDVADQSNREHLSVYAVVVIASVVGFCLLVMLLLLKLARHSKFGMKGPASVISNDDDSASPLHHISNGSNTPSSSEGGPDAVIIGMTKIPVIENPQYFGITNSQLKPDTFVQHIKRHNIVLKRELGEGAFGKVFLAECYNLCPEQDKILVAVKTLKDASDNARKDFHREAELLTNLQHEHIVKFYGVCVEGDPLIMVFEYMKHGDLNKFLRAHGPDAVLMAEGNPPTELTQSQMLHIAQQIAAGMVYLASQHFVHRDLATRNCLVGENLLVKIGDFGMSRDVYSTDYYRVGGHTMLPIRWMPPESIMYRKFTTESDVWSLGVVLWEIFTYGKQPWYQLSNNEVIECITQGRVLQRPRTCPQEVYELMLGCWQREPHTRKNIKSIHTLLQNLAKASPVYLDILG
Description: To further assess whether 7,8-dihydroxyflavone blocks neuronal apoptosis in a TrkB dependent manner, cortical neurons were prepared from homozygous pups of TrkC+/−mice, which were mated to the same genotype. […] Glutamate weakly stimulated both TrkA and TrkB faint phosphorylation regardless of TrkC genotype (FIG. 22, rows 1 and 3). The spontaneous caspase-3 activation in TrkC−/− neurons was suppressed by 7,8-dihydroxyflavone (FIG. 22, row 5).

[6] = tested on: immobility; assay: Forced swim test, 5 days intraperitoneal; assay type: in vivo, mice; conditions: intraperitoneally for 5 days; imipramine 20 mg/kg, amitryptyline 15 mg/kg, 7,8-dihydroxyflavone 5 mg/kg; FIG. 25
Description: Adult male mice (2-3 months old, n=8) were randomly submitted, without a pre-swim, to a forced swim test of 6 minutes with immobility recorded in the last 4 minutes. Mice were injected intraperitoneally for 5 days with saline, imipramine (20 mg/kg), amitryptyline (15 mg/kg), or 7,8-dihydroxyflavone (5 mg/kg). The mice were allowed to adapt to the test room for 2 days, and the mice were placed in a clear glass cylinder with a diameter of 16 cm, half-filled with clear water at 24° C. […] Data are presented as mean±SEM; *p<0.05 against vehicle, **P<0.01 against vehicle and ***P<0.0001 against vehicle, student t-test.

[7] = tested on: KA-induced caspase-3 activation; assay: KA-induced neuronal cell death in TrkB F616A mice, oral TrkB agonists; assay type: in vivo, TrkB F616A knock-in mice
Description: TrkB F616A knockin mice (2-3 months old) were fed 1NMPP1 (25 μM) in drinking water one day before pharmacological reagent treatment. The next day, the mice were orally injected with 7,8-DHF or 4′-DMA-7,8-DHF (5 mg/kg) 4 hours before kainic acid (20 mg/kg). The control mice were injected with saline, 1NMPP1, kainic acid alone or administrated 7,8-DHF or 4′-DMA-7,8-DHF 4 hours before kainic acid. In 4 days, the mice were sacrificed and brains were homogenized and ultra-centrifuged. The supernatant (40 μg) was employed for SDS-PAGE and immunoblotting analysis with indicated antibodies, respectively.
To explore whether the neuroprotective effect of these small molecules is dependent on TrkB activation in vivo, TrkB F616A knock-in mice were used.

[8] = tested on: immobility; assay: Forced swim test after 21 days oral treatment; assay type: in vivo, C57BL/6J mice; conditions: 5 mg/kg, oral injection, FIG. 34
Description: Adult male mice (2-3 months old) were randomly submitted to a forced swim test without a pre-swim. Saline, 4′-DMA-7,8-DHF and 7,8-DHF (5 mg/kg) were orally injected for 21 days. The mice were allowed to adapt to the test room for 2 days. The mice were placed in a clear glass cylinder with a diameter of 16 cm, half-filled with clear water at 24° C.
To explore whether 4′-DMA-7,8-DHF and 7,8-DHF have any antidepressant effect, a forced swim test (6 minutes, immobility recorded in the last 4 minutes) was conducted after chronic treatment of male C57BL/6J mice (8 mice/group) for 21 days via oral injection.

[9] = tested on: immobility time; assay: Forced swim test in TrkB F616A knockin mice with saline or 1NMPP1 pretreatment; assay type: in vivo; conditions: drugs for five days, FIG. 36
Description: To assess whether the behavior responses by 7,8-DHF and its derivative are mediated by TrkB receptor, TrkB F616A knockin mice were utilized. The transgenic mice were subjected to saline or 1NMPP1 pretreatment (25 μM), respectively (drinking water provided one day prior to drug injection and maintained throughout whole experiment). The control and/or drugs were provided for five days. […] (Data presented in FIGS. 34, 35, and 36 as mean±SEM; *p<0.05 against vehicle, #P<0.01 against vehicle and ***P<0.0001 against vehicle, student t-test.)

[10] = target: T3, TrkA (Mus musculus, UniProt Q3UFB7); assay: TrkA phosphorylation in mouse brain after intraperitoneal injection; assay type: in vivo, mice; design: from tissue; host or cells: mouse brain; conditions: 5 mg/kg intraperitoneally, 2 hours after injection, FIG. 12
T3 sequence (Q3UFB7 34-799): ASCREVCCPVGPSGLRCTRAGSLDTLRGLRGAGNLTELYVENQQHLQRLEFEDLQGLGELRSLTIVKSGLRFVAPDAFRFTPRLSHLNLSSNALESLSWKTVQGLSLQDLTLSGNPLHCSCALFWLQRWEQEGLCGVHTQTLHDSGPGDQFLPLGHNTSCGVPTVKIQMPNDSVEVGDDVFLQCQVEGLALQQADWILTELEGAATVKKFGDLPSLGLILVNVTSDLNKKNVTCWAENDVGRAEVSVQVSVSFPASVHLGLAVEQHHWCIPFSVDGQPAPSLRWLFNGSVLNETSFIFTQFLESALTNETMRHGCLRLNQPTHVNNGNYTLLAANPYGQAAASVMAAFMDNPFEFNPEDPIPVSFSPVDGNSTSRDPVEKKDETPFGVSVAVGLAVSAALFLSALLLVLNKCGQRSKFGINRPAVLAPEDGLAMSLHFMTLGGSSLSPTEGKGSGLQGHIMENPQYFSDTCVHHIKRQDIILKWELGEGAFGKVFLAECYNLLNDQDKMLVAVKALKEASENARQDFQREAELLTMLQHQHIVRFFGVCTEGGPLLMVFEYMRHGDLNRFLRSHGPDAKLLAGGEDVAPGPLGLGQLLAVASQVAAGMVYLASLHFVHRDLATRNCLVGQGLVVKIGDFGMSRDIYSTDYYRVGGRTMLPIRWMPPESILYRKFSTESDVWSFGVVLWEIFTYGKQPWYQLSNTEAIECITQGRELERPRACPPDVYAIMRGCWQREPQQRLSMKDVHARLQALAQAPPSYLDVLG
Description: To assess whether 7,8-dihydroxyflavone can provoke TrkB activation in the brain, mice were intraperitoneally injected with a dose of 5 mg/kg and analyzed at various time points. […] Further, as shown in FIG. 12 (right panel), the protein and mRNA levels of the neurotrophic receptors were not altered after treatment with 7,8-dihydroxyflavone.

[11] = target: T3, TrkA; assay: Trk activation in cortical neurons from wild-type and TrkB-null pups: TrkA; assay type: cell-based, mice; design: endogenous in cells; host or cells: primary cortical neurons of mouse pups; conditions: FIG. 21
Description: as §1

Q: Which “protective effect in OGD” value ([1]; 30 minutes prior to OGD, apoptotic analysis in 3 hours, FIG. 7 left) does the source give for `O=c1cc(-c2ccccc2)oc2c(O)c(O)ccc12` [7,8-dihydroxyflavone] here?
A: The value was “most potent protective effects among the compounds”.

Q: What about the “titration assay of protection in OGD” value ([1]; FIG. 7 right) of the same compound?
A: The value was “protects neurons in a dose-dependent manner”.

Q: What about the “time at which Erk phosphorylation was observed” value ([2]; 500 nM) of the same compound?
A: Its value is 5 min.

Q: And the “time by which Erk phosphorylation faded” value ([2]; 500 nM)?
A: Its value is 180 min.

Q: And the “Erk activation (Western)” value ([2]; FIG. 9)?
A: The value was “activated”.

Q: And the “concentration at which Erk phosphorylation was observed” value ([2]; treatment for 30 minutes)?
A: The value was 250 nM.

Q: And the “binding to TrkB ICD” value [3]?
A: Its value is “not ICD”.

Q: What about the “Glutamate-provoked Caspase-3 activation in TrkB-/- neurons” value [4] of the same compound?
A: Its value is “not”.

Q: What about the “Glutamate-provoked Caspase-3 activation in wild-type neurons” value [4] of the same compound?
A: The value was “substantially blocked”.

Q: And the “TrkB activation in wild-type and TrkC knockout neurons” value [5]?
A: Its value is “provoked TrkB”.

Q: And the swimming immobility [6]?
A: Its swimming immobility is “reduced the immobility”.

Q: What about the “KA-caused caspase-3 activation” value ([7]; 5 mg/kg orally 4 hours before kainic acid (20 mg/kg), FIG. 31) of the same compound?
A: The value was “markedly diminished”.

Q: What about the “protective effect after 1NMPP1 pretreatment” value ([7]; 1NMPP1 (25 μM) in drinking water, FIG. 31 top) of the same compound?
A: Its value is “abolished”.

Q: And the “TrkB phosphorylation after 1NMPP1 pretreatment” value ([7]; FIG. 31, 2nd panel)?
A: The value was “notably blocked”.

Q: And the swimming immobility [8]?
A: The swimming immobility was “significantly decreased”.

Q: And the “immobility time after 1NMPP1 treatment” value ([9]; 1NMPP1 25 μM in drinking water)?
A: The value was “neither 4′-DMA-7,8-DHF nor 7,8-DHF had any significant effect”.

Q: And the “immobility time, saline group” value [9]?
A: Its value is “substantially reduced the immobility time”.

Q: And the “TrkA phosphorylation in the brain” value [10]?
A: Its value is “not TrkA”.

Q: What about the TrkA activation [11] of the same compound?
A: Its TrkA activation is “not TrkA receptor”.
